# Assay: Solubility in water of specified hydrophobic compound or comparative compound
# Type: physicochemical
# Conditions: water at 25° C.
# Description: Specifically, a Erlenmeyer flask is charged with 20 g of the test substance and 80 g of water, and shaken at 25° C. for 24 hours. The resultant solution is filtered through a 5 μm membrane filter, to obtain filtrate. The obtained filtrate (5 g) is evaporated to dryness at 100° C. for 3 hours. From the mass of the residual, the content (mass %) of the test substance dissolved in the filtrate relative to the total amount of the filtrate is calculated. The calculated content (mass %) is defined as the solubility in water of the test substance.
# Specifically, an Erlenmeyer flask is charged with 100 g of water; while the internal temperature is maintained at 25° C., the test substance is gradually dropped. The dropping is ended when visual observation finds cloudiness in the liquid within the Erlenmeyer flask. The mass (mass %) of the test substance dropped until the end of the dropping relative to the total mass of the liquid within the Erlenmeyer flask is defined as the solubility in water of the test substance.
row,Solubility in water [mass %],SMILES
1,<1,CCCCCCCCCCC(CO)CCCCCCCC (stereo not drawn) [2-Octyldodecanol]
2,<1,CCCCCCCCCCCCCCCCCCO [Stearyl alcohol]
3,<1,"CCCCCCCCO [Example 1-Octanol, 1-Octanol]"

# More lines, now with the values behind:
row,SMILES,Solubility in water [mass %]
1,"CCCCCCCCCCCCCCCCCCCCCCO [Example 1-Docosanol, 1-Docosanol]",<1
2,CCCCCCCCCCCCCCCCCC(=O)OC [EXCEPARL MS],<1
3,"CCCCCCCCCCCCCCCCCCCCO [Example 1-Eicosanol, 1-Eicosanol]",<1

# Source: patent US10913871B2, “Ink composition, method for producing the same, and image-forming method” (FUJIFILM CORPORATION, priority 2017, dated 2021)
